Reference: US20050203063A1, “Proteasome pathway inhibitors and related methods” (priority 2003, published 2005)
Read-outs that look alike come from different tables or passages of the source. Where a SMILES comes first, the peptide text is derived from it. The star is where a group is joined. Cbz = O=C(OCc1ccccc1)*

How the values were obtained:
[1] = test system: cyclin-luciferase (cyc-luc) turnover, activated APC/C; experiment: cyc-luc turnover in mitotic Xenopus extracts (pre-treated with non-degradable cyclin B); assay type: biochemical
Method: (§1) FIG. 1. Functional classification of inhibitors. Compounds that scored in the initial screen were reacquired as dry powders and retested in Xenopus extracts in 4 assays at 200 μM concentration (32) as described (6). […] (A) Compounds and cyclin-luciferase were added to interphase extracts, which were then induced to enter mitosis by addition of non-degradable cyclin B. Percent inhibition of cyc-luc turnover by each compound is coded according to the grayscale shown at the bottom of the figure; specific values are available in Table 1. (B) Extracts were pre-treated with non-degradable cyclin B to allow entry into mitosis prior to addition of test compound and reporter protein. (C) Interphase extracts were treated by addition of recombinant Cdh1 to activate cyc-luc turnover. (D) Interphase extracts were treated with recombinant axin to induce turnover of β-catenin-luciferase.
(§2) The “Cmpd” column corresponds to the numbers used in FIG. 1; “Class” refers to the class of inhibitor described in FIG. 1 and the text. Columns A-D show percent inhibition in the four assays described in FIG. 1. (A) Interphase extracts (B) Mitotic extracts (C) Interphase extracts stimulated with Cdh1 (D) Degradation of a β-catenin reporter protein in interphase extracts stimulated with recombinant axin. […] “ID#” refers to the identification number of the inhibitor obtained from the NCI (prefaced by NSC) or Chembridge (prefaced by C).
(§3) Dry compounds were redissolved at 20 mM concentration in DMSO, or a 50:50 water:DMSO mixture in certain cases. These compounds were then diluted ten-fold in XB and mixed thoroughly. For the assay in FIG. 1A, chilled interphase extract was mixed with cyclin BΔ90 (10 μg/ml) and cyc-luc (0.1 μg/ml) in bulk and then 27 μl of extract was pipetted to each well of a chilled 384-well plate. Three microliters of each compound (diluted in XB) was then added to each well, and then compounds mixed thoroughly. Plates were warmed to room temperature. After 70 minutes, 5 μl aliquots were transferred to another plate, and then 30 μl of luciferin reagent was added to each well and luminescence measured. Percent inhibition was calculated as described above. The reported values represent the average of three independent measurments. For the assay in FIG. 1B, interphase extracts were treated with 10 μg/cyclin B 90 for 50 minutes at room temperature and then chilled on ice. Cyc-luc was then added, and then 27 μl of extract was pipetted to each well of a chilled 384-well plate. Three microliters of each compound (diluted in XB) was then added to each well, and then compounds mixed thoroughly. Plates were warmed to room temperature. After 60 minutes, 5 μl aliquots were transferred to another plate, and then 30 μl of luciferin reagent was added to each well and luminescence measured. For the assay in FIG. 1C, recombinant Cdh1 (0.1 μg/ml) and cyc-luc were added to chilled interphase extracts. Extracts were then pipetted and compounds added as above. Plates were warmed to room temperature and incubated for three hours, following which luminescence was measured as above. For the assay in FIG. 1D, chilled interphase extracts received recombinant axin and beta-catenin-luciferase reporter as described (8). Extracts were aliquoted to chilled plates and compounds distributed as described above. Plates were warmed to room temperature, incubated for three hours, and luminescence measured.

[2] = test system: Cdh1-stimulated cyc-luc proteolysis (APC/C); experiment: cyc-luc turnover in interphase Xenopus extracts stimulated with recombinant Cdh1; assay type: biochemical
Method: as §1, §2, §3

[3] = test system: cyclin-luciferase (cyc-luc) turnover, APC/C activation; experiment: cyc-luc turnover in interphase Xenopus extracts induced to enter mitosis by non-degradable cyclin B; assay type: biochemical
Method: as §1, §2
Extracts were rapidly thawed and diluted to a final concentration of 75% in extract buffer (XB) just prior to assay (XB; 100 mM KCl, 0.1 mM CaCl2, 1 mM MgCl2, 10 mM potassium HEPES, pH 7.7, 50 mM sucrose). Extracts were kept on ice and supplemented with 1 mg/ml bovine ubiquitin (Sigma) unless otherwise stated. Cyc-luc expressed in reticulocyte lysate was diluted 1/200 for most assays. High-throughput screening utilized the bacterially expressed and purified cyclin-luc fusion protein, which was added to extracts at a final concentration of 0.1 μg/ml. To induce entrance into mitosis, cyclin BΔ90 protein was added to a final concentration of 10 μg/ml. For the dose response analysis, inhibitors were purchased from Calbiochem (San Diego, Calif.) and dissolved in DMSO as 10 mM stocks. Cyclin-luciferase and cyclin BΔ90 were mixed with interphase extract and placed on ice. Inhibitors were then added to extracts to yield a final DMSO concentration of 1%. 10 μl aliquots of extract were distributed into 384-well white Cliniplates (Labsystems), and cell cycle progression was initiated by warming the samples to room temperature. After 60 minutes, 30 μl of luciferin reagent (20 mM tricine pH 7.8, 470 μM D-Luciferin [Molecular Probes]), 270 μM Coenzyme A, 0.1 mM EDTA, 33 mM DTT, and 530 μM ATP) was added using a multidrop dispenser (Labsystems). Luminescence was measured on an Analyst plate reader (LJL Biosystems). The values for 3 replicates were averaged. For the dose response analysis, percent inhibition was calculated as 100*(T−M)/(I−M) where T equals the test value for the inhibitor, M equals the value in a mitotic extract lacking inhibitor, and I equals the value in an interphase extract. For certain experiments, methylated ubiquitin was added to interphase extracts at a concentration of 1 mg/ml in the presence or absence of added unmodified ubiquitin (1 mg/ml) used as competitor. Cyclin-luciferase and cyclin BΔ90 were then added. After 60 minutes, the reactions were stopped and analyzed as described above.
Dry compounds were redissolved at 20 mM concentration in DMSO, or a 50:50 water:DMSO mixture in certain cases. These compounds were then diluted ten-fold in XB and mixed thoroughly. For the assay in FIG. 1A, chilled interphase extract was mixed with cyclin BΔ90 (10 μg/ml) and cyc-luc (0.1 μg/ml) in bulk and then 27 μl of extract was pipetted to each well of a chilled 384-well plate.

[4] = test system: β-catenin-luciferase turnover (substrate of the SCFβ-TRCP ubiquitin ligase); experiment: β-catenin-luciferase turnover in interphase Xenopus extracts stimulated with recombinant axin; assay type: biochemical
Method: as §1, §2, §3

[5] = test system: HEK-293 cells stably expressing GFP-AR; experiment: Protac-induced GFP-AR degradation in microinjected HEK-293 cells; assay type: cell-based; conditions: microinjection, 100 nM
Method: The results are representative of experiments performed on 3 separate days.
The effect of ubistatin A on protein degradation within intact mammalian cells was also evaluated (FIG. 4). Since the negative charge of the molecule was predicted to preclude efficient entry into the cell, compound was introduced by microinjection.
HEK-293 cells stably transfected with a plasmid that expresses GFP-AR were microinjected with 0.2 pl (5-10% of cell volume) of a 200 mM KCl solution containing 10 μM Protac and 50 mg/ml rhodamine dextran (MW 10,000 Da).

[6] = 200 μM compound, extracts in mitosis before addition of compound
[7] = 200 μM compound, negative values reflect stimulation of proteolysis
[8] = 200 μM compound, added to interphase extracts then induced to enter mitosis, average of three measurements

Row | SMILES | percent inhibition of cyc-luc turnover, (B) Mitotic extracts [1, 6] [%] | percent inhibition of cyc-luc turnover, (C) Interphase extracts stimulated with Cdh1 [2, 7] [%] | percent inhibition of cyc-luc turnover, (A) Interphase extracts [3, 8] [%] | percent inhibition, (D) Degradation of a β-catenin reporter protein in interphase extracts stimulated with recombinant axin ([4]; 200 μM compound) [%] | other results
1 | O=C1c2ccccc2C2=NNC3=C(S(=O)(=O)O)C=CC1C23 (stereo not shown) [Compound 10] | 0 | −4 | 33 | 21 | –
2 | O=C(NNC(=S)NC(=O)C12CC3CC(CC(C3)C1)C2)c1ccncc1 [Compound 13] | 0 | −9 | 75 | 0 | –
3 | O=S(=O)(O)c1ccc2c(/N=N/c3ccccc3)c(O)ccc2c1 [Compound 18] | 4 | −7 | 73 | 0 | –
4 | Nc1ncnc(Nc2ccc(S(N)(=O)=O)cc2)n1 [Compound 25] | 3 | −6 | 66 | 0 | –
5 | Nc1ncnc2c1ncn2C1OC2COP(=O)(O)OC2C1O (stereo not shown) [Compound 34] | – | – | – | – | percent inhibition of cyc-luc turnover, (B) Mitotic extracts ([1]; 200 µM): 0%; percent inhibition of cyc-luc turnover, (C) Interphase extracts stimulated with Cdh1 ([2]; 200 µM): −8%; percent inhibition of cyc-luc turnover, (A) Interphase extracts ([3]; 200 µM): 100%; percent inhibition, (D) Degradation of a β-catenin reporter protein in interphase extracts stimulated with recombinant axin ([4]; 200 µM): 6%
6 | Nc1ncnc2c1c(Cl)cn2[C@@H]1O[C@H](CO)[C@@H](O)[C@H]1O [Compound 39] | 9 | −7 | 100 | 67 | –
7 | ON=c1[nH]cnc2[nH]cc(Br)c12 [Compound 40] | 0 | −6 | 42 | 3 | –
8 | N#Cc1c(NN)n(C2OC(CO)C(O)C2O)c2ncnc(N)c12 (stereo not shown) [Compound 51] | 0 | 0 | 100 | 30 | –
9 | CC(=O)Nc1ncnc2[nH]ncc12 [Compound 54] | 3 | −6 | 54 | 0 | –
10 | Nc1nc2c(c(=O)[nH]1)c1c(N)ncnc1n2C1OC(CO)C(O)C1O (stereo not shown) [Compound 57] | 4 | 0 | 100 | 60 | –
11 | O[Si](c1ccccc1)(c1ccccc1)c1ccccc1.O[Si](c1ccccc1)(c1ccccc1)c1ccccc1.O[Si](c1ccccc1)(c1ccccc1)c1ccccc1.[O]=[V] [Compound 61] | 8 | −8 | 77 | 2 | –
12 | O=c1[nH]c(O)nc2cc3[nH]ncc3cc12 [Compound 62] | 0 | −8 | 84 | 0 | –
13 | O=c1[nH]cnc2c1ccc1[nH]ncc12 [Compound 67] | 3 | −8 | 53 | 3 | –
14 | O/N=C(/C=N/O)SCCSC(/C=N/O)=N/O [Compound 77] | 4 | −12 | 100 | 0 | –
15 | NC(=O)c1ncn(C2OC(CO)C(O)C2O)c1C(N)=O (stereo not shown) [Compound 82] | 0 | 0 | 100 | 0 | –
16 | CC(C)C[C@@H](C=O)NC(=O)[C@H](CC(C)C)NC(=O)[C@H](CC(C)C)NC(=O)OCc1ccccc1 [MG132, reference compound] (Cbz-Leu-Leu-Leu-aldehyde) | – | – | – | – | effect on loss of cyc-luc activity / activation of latent APC/C activity (in words) ([3]; assay validation, inhibitor added to interphase extract before mitotic entry): partially inhibited
17 | CC[C@H](C)[C@H](NC(=O)[C@H]([C@@H](C)CC)N(C)C(C)=O)C(=O)N[C@H](C(=O)N[C@@H](CC(C)C)C(=O)[C@@]1(C)CO1)[C@@H](C)O [epoxomicin] | – | – | – | – | block of Protac-X induced loss of GFP-AR [5]: completely blocked
18 | CC[C@H](CO)Nc1nc(NCc2ccccc2)c2ncn(C(C)C)c2n1 [roscovitine, reference compound] | – | – | – | – | effect on cyc-luc proteolysis in mitotic extracts (in words) [1]: ineffective; effect on loss of cyc-luc activity / activation of latent APC/C activity (in words) [3]: blocked
